Laboratory results taken from ChEMBL document CHEMBL1201862, “PubChem BioAssay data set” (2004).
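Test compounds were applied to cells in 96-well plates for 48 hours at 5 doses. GI50: concentration for 50% inhibition of growth.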 The source made the active and inactive calls. Cut-off read from the data, not from the text of the source: active = GI50 up to about 1.1 µM and inactive = higher.

Tests used:
Assay in all cases: DTP human tumour cell line panel, 48 h
M14 = test system: M14
NCI-H23 = test system: NCI-H23
ACHN = test system: ACHN
IGROV-1 = test system: IGROV-1
SK-MEL-2 = test system: SK-MEL-2
UO-31 = test system: UO-31
COLO 205 = test system: COLO 205
PC-3 = test system: PC-3
SK-OV-3 = test system: SK-OV-3
U-251 = test system: U-251
A498 = test system: A498
MOLT-4 = test system: MOLT-4
SK-MEL-28 = test system: SK-MEL-28
UACC-62 = test system: UACC-62
SR = test system: SR
OVCAR-3 = test system: OVCAR-3
Malme-3M = test system: Malme-3M
OVCAR-8 = test system: OVCAR-8
HCC 2998 = test system: HCC 2998
SNB-19 = test system: SNB-19

| SMILES | GI50 (M14) | GI50 (NCI-H23) | GI50 (ACHN) | GI50 (IGROV-1) | GI50 (SK-MEL-2) | GI50 (UO-31) | GI50 (COLO 205) | GI50 (PC-3) | GI50 (SK-OV-3) | GI50 (U-251) | GI50 (A498) | GI50 (MOLT-4) | GI50 (SK-MEL-28) | GI50 (UACC-62) | GI50 (SR) | GI50 (OVCAR-3) | GI50 (Malme-3M) | GI50 (OVCAR-8) | GI50 (HCC 2998) | GI50 (SNB-19) |
| --- | --- | --- | --- | --- | --- | --- | --- | --- | --- | --- | --- | --- | --- | --- | --- | --- | --- | --- | --- | --- |
| Cc1c2cc[n+](C)c(C)c2cc2c1[nH]c1ccccc12 | 25.2 µM (inactive) | 2.05 µM (inactive) | 36.3 µM (inactive) | 7.98 µM (inactive) | 6.73 µM (inactive) | 67.6 µM (inactive) | 1.57 µM (inactive) | 22.2 µM (inactive) | 12.7 µM (inactive) | 0.69 µM (active) | 70.5 µM (inactive) | 4.05 µM (inactive) | 5.41 µM (inactive) | 11.3 µM (inactive) | > 26.6 µM (inactive) | 5 µM (inactive) | 2.72 µM (inactive) | 2.82 µM (inactive) | 7.78 µM (inactive) | 0.8 µM (active) |
| c1sc(NC2=NCCO2)c2c1CCCC2 | > 100 µM (inactive) | > 100 µM (inactive) | > 100 µM (inactive) | > 100 µM (inactive) | > 100 µM (inactive) | > 100 µM (inactive) | > 100 µM (inactive) | 99.8 µM (inactive) | > 100 µM (inactive) | > 100 µM (inactive) | > 100 µM (inactive) | 85.5 µM (inactive) | > 100 µM (inactive) | > 100 µM (inactive) | > 100 µM (inactive) | > 100 µM (inactive) | > 100 µM (inactive) | > 100 µM (inactive) | > 100 µM (inactive) | > 100 µM (inactive) |
| Cc1cc(-c2c(F)cc3c4nn([C@H]5CC[C@@H](N(C)C)CC5)c(=O)c-4cn(C4CC4)c3c2F)cc(C)n1 | 0.46 µM (active) | 0.132 µM (active) | 0.214 µM (active) | 1.66 µM (inactive) | 0.82 µM (active) | 1.59 µM (inactive) | 0.208 µM (active) | 1.56 µM (inactive) | 0.183 µM (active) | 0.105 µM (active) | 0.0229 µM (active) | < 0.0316 µM (active) | 0.687 µM (active) | 0.159 µM (active) | 0.0735 µM (active) | 0.805 µM (active) | 0.38 µM (active) | 0.221 µM (active) | 0.29 µM (active) | 0.309 µM (active) |
| C=CCc1cc(-c2cc(CC=C)c(O)c(CN(CC)CC)c2)cc(CN(CC)CC)c1O | 8.93 µM (inactive) | 60.1 µM (inactive) | 80 µM (inactive) | > 67.6 µM (inactive) | 26.9 µM (inactive) | 15.2 µM (inactive) | 26.3 µM (inactive) | 40.2 µM (inactive) | > 100 µM (inactive) | 42.4 µM (inactive) | > 100 µM (inactive) | 39.9 µM (inactive) | 28.6 µM (inactive) | 22.2 µM (inactive) | 13.5 µM (inactive) | 64 µM (inactive) | 16.8 µM (inactive) | > 96.6 µM (inactive) | 29 µM (inactive) | > 97.3 µM (inactive) |
| Cc1cc(=O)nc(Sc2ccc([N+](=O)[O-])cc2[N+](=O)[O-])[nH]1 | 16.4 µM (inactive) | 18.3 µM (inactive) | 19.8 µM (inactive) | 80.2 µM (inactive) | 20.6 µM (inactive) | 17 µM (inactive) | 4.65 µM (inactive) | 22.2 µM (inactive) | 71.8 µM (inactive) | 20.7 µM (inactive) | > 100 µM (inactive) | 7.59 µM (inactive) | 20 µM (inactive) | 17.3 µM (inactive) | 6.27 µM (inactive) | 17 µM (inactive) | 17.3 µM (inactive) | 15.9 µM (inactive) | 16.3 µM (inactive) | 26.1 µM (inactive) |
| CCOC(=O)Nc1ccc(C)c(NC(=O)OCC)c1 | > 100 µM (inactive) | > 100 µM (inactive) | > 100 µM (inactive) | 55.6 µM (inactive) | > 100 µM (inactive) | > 100 µM (inactive) | > 100 µM (inactive) | > 100 µM (inactive) | > 100 µM (inactive) | > 100 µM (inactive) | > 100 µM (inactive) | > 100 µM (inactive) | > 100 µM (inactive) | > 100 µM (inactive) | > 100 µM (inactive) | > 100 µM (inactive) | > 100 µM (inactive) | > 100 µM (inactive) | 56.2 µM (inactive) | > 100 µM (inactive) |
| O=C(O)CNC(=O)c1c2ccccc2nc2ccccc12 | > 100 µM (inactive) | > 100 µM (inactive) | > 100 µM (inactive) | > 100 µM (inactive) | > 100 µM (inactive) | > 100 µM (inactive) | > 100 µM (inactive) | > 100 µM (inactive) | > 100 µM (inactive) | > 100 µM (inactive) | > 100 µM (inactive) | > 100 µM (inactive) | > 100 µM (inactive) | > 100 µM (inactive) | > 100 µM (inactive) | > 100 µM (inactive) | > 100 µM (inactive) | > 100 µM (inactive) | > 100 µM (inactive) | > 100 µM (inactive) |
| O=c1[nH]c(=O)n(C2CC(O)C(CO)O2)cc1/N=N/NCCCc1ccccc1 (stereo not drawn) | > 100 µM (inactive) | > 100 µM (inactive) | > 100 µM (inactive) | > 100 µM (inactive) | > 100 µM (inactive) | < 0.01 µM (active) | > 100 µM (inactive) | > 100 µM (inactive) | > 100 µM (inactive) | – | > 100 µM (inactive) | > 100 µM (inactive) | > 100 µM (inactive) | > 100 µM (inactive) | > 100 µM (inactive) | > 100 µM (inactive) | > 100 µM (inactive) | > 100 µM (inactive) | > 100 µM (inactive) | – |
| O=P(Nc1ccccc1)(Oc1ccccc1)N1CCN(c2ccccc2)CC1 (stereo not drawn) | 15.2 µM (inactive) | 19.6 µM (inactive) | 22.4 µM (inactive) | 20.8 µM (inactive) | 20.9 µM (inactive) | 14.9 µM (inactive) | 19.6 µM (inactive) | 18.1 µM (inactive) | 16.8 µM (inactive) | 16.8 µM (inactive) | 20.2 µM (inactive) | 17.9 µM (inactive) | 19.7 µM (inactive) | 12.7 µM (inactive) | 34.4 µM (inactive) | 18.7 µM (inactive) | 17.2 µM (inactive) | 21.9 µM (inactive) | 16.3 µM (inactive) | 15.8 µM (inactive) |
| O=C(CCCN1CCC(Nc2ccc(F)cc2)(c2nnnn2C2CCCCC2)CC1)c1ccc(F)cc1 | 16.7 µM (inactive) | 14.5 µM (inactive) | 10.6 µM (inactive) | 3.69 µM (inactive) | 16.3 µM (inactive) | 14.1 µM (inactive) | 14.3 µM (inactive) | 13.1 µM (inactive) | 3.39 µM (inactive) | 15.3 µM (inactive) | 3.79 µM (inactive) | 5.27 µM (inactive) | 16.2 µM (inactive) | 3.3 µM (inactive) | 11.7 µM (inactive) | 14.8 µM (inactive) | 29.2 µM (inactive) | 23.6 µM (inactive) | 16.3 µM (inactive) | 15.6 µM (inactive) |
